# In article PMC7058016, “Photoinduced damage of AsLOV2 domain is accompanied by increased singlet oxygen production due to flavin dissociation” (Scientific Reports, 2020):
# Biological target: T1, AsLOV2 (Avena sativa, UniProt O49003, C450A)
# T1 construct: gene NPH1-1; LOV2 domain, residues 404-547, N-terminal His10-tag kept (first 31 residues not native), E. coli BL21(DE3)
# Assay: co-purified holoprotein; absorption and fluorescence spectra, FMN triplet lifetime, […] kDa filtration
# Format: binding
# Conditions: 20 mM Tris-HCl pH 7.8, room temperature; before irradiation; no covalent adduct possible
# T1 sequence (O49003 entry or part of it C450A): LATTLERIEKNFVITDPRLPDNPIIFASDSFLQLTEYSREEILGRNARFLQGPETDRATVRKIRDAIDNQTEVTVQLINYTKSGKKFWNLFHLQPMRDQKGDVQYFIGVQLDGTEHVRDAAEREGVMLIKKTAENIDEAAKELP
structure (smiles),measurement,value
Cc1cc2nc3c(=O)[nH]c(=O)nc-3n(C[C@H](O)[C@H](O)[C@H](O)COP(=O)(O)O)c2cc1C [flavin mononucleotide],"co-purified holoprotein; absorption and fluorescence spectra, FMN triplet lifeti",before irradiation there was no free FMN detected in the filtrate
